Assay results: patent US20250367084A1, “Micellar Composition” (Phytoceutical Limited, priority 2022, published 2025)

Assays:
[1] = cited from earlier work
[2] = test system: adult human dermal fibroblast (HDFa) cells; assay: Cytotoxicity of retinol (Presto Blue / WST-1); format: cell-based; conditions: 24 h exposure
Description: The cytotoxicity of retinol was determined.
Experiment 1: A solution of retinol (20 mg/mL) in ethanol (absolute) was prepared. The solution was diluted to 2 mg/mL, forming a light yellow emulsion. The emulsion was diluted in optiMem to provide concentrations of 5, 2.5, 1.25, 0.625 and 0.31 μg/mL retinol. Untreated and detergent controls were included for comparison. Using a Presto Blue assay, adult human dermal fibroblast (HDFa) cells (5 k per well) were exposed to the solutions for 24 h.
Experiment 2: A solution of retinol (20 mg/mL) in 1,2-propanediol was prepared. The solution was diluted to 2 mg/mL, forming an off-white emulsion. The emulsion was diluted in optiMem to provide concentrations of 10, 5, 2.5, 1.25, 0.625 and 0.31 μg/mL retinol. Untreated and detergent controls were included for comparison. Using a WST-1 probe, HDFa cells (5 k per well) were exposed to the solutions for 24 h.
Experiment 3: A solution of retinol (20 mg/mL) in ethanol (absolute) was prepared. The solution was diluted to 2 mg/mL, forming an light yellow emulsion. The emulsion was diluted in optiMem to provide concentrations of 10, 5, 2.5, 1.25, 0.625 and 0.31 μg/mL retinol. Untreated and detergent controls were included for comparison. Using a WST-1 probe, HDFa cells (5 k per well) were exposed to the solutions for 24 h.

| Compound | log P [1] | concentration at which retinol is cytotoxic to the HDFa cell line ([2]; 5 k cells per well) | cytotoxicity at concentration below 10 μg/mL ([2]; concentration below 10 μg/mL) |
| --- | --- | --- | --- |
| C=C(C)[C@@H]1CCC(C)=C[C@H]1c1c(O)cc(CCCCC)cc1O [CBD, cannabidiol] | ~6.3 |  |  |
| CC1=C(/C=C/C(C)=C/C=C/C(C)=C/CO)C(C)(C)CCC1 [retinol, Retinol] |  | ≥ 10000 ng/mL | only little, if any, cytotoxicity |
